Read-outs that look alike come from different tables or passages of the source.
Key:
human DGKζ = human DGKζ (Homo sapiens (Human), UniProt Q13574); test: DGKζ LIPGLO assay (extruded liposome substrate, ADP-Glo luminescence); assay type: biochemical; conditions: liposome (LIPGLO) assay; read-out: DGK zeta (liposome assay) IC50
human DGKα = human DGKα (Homo sapiens (Human), UniProt P23743); test: DGKα ADPGLO assay (detergent/lipid micelle substrate); assay type: biochemical; conditions: ADPGLO assay; read-out: DGK alpha ADPGLO IC50
human DGKα, sequence (P23743 whole entry, looked up, the tested form may be a part): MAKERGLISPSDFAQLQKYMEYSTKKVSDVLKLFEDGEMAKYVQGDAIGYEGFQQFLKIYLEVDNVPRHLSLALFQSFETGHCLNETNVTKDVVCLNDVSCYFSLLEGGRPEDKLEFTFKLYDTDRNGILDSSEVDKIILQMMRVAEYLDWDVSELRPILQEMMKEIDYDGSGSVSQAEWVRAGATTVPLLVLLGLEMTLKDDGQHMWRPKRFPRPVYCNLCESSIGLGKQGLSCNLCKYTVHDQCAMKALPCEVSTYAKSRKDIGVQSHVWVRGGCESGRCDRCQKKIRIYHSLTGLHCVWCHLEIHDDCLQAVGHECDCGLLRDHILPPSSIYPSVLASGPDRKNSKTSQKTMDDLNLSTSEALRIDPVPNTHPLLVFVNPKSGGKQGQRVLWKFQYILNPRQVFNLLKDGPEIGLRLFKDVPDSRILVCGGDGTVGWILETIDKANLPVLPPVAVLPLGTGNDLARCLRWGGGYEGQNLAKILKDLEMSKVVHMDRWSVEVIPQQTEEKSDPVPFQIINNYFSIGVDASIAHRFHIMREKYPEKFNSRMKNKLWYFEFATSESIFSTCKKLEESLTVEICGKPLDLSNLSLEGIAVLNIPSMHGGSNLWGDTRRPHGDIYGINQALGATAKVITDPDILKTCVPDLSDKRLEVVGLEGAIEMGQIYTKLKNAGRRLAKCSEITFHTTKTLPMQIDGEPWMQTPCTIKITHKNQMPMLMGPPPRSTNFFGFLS
Method: DGK Alpha ADPGLO (Truncated) IC50 (uM)
The detergent/lipid micelle was prepared by combining 15 g phosphatidylserine (Avanti 840035P) and 1 g diacylglycerol (8008110) and dissolving into 150 mL chloroform in a 2 L round bottom flask. Chloroform was removed under high vacuum by rotary evaporation. […] The lipid/detergent solution was split into 5 mL aliquots and stored at −80° C.

[1] = test system: human venous whole blood (IFN-γ); test: Human whole blood IFN-γ assay; assay type: cell-based; conditions: human whole blood, anti-CD3 plus anti-CD28 stimulation, 24 hours, read-out: IFN-γ Whole Blood EC50
Method: Human venous whole blood (22.5 μL per well), obtained from healthy donors, was pre-treated with compounds for one hour at 37° C. in a humidified 95% air/5% CO2 incubator. The blood was stimulated with 2.5 μL anti-human CD3 and anti-CD28 mAb at a final concentration of 1 μg/mL each for 24 hours at 37° C. IFN-γ in the supernatants was measured using AlphLISA kit (Cat #AL217).

whole blood (pERK) = test: pERK Whole Blood; assay type: cell-based

human DGKζ, sequence (Q13574 other isoform, or with tags, fused parts or gaps): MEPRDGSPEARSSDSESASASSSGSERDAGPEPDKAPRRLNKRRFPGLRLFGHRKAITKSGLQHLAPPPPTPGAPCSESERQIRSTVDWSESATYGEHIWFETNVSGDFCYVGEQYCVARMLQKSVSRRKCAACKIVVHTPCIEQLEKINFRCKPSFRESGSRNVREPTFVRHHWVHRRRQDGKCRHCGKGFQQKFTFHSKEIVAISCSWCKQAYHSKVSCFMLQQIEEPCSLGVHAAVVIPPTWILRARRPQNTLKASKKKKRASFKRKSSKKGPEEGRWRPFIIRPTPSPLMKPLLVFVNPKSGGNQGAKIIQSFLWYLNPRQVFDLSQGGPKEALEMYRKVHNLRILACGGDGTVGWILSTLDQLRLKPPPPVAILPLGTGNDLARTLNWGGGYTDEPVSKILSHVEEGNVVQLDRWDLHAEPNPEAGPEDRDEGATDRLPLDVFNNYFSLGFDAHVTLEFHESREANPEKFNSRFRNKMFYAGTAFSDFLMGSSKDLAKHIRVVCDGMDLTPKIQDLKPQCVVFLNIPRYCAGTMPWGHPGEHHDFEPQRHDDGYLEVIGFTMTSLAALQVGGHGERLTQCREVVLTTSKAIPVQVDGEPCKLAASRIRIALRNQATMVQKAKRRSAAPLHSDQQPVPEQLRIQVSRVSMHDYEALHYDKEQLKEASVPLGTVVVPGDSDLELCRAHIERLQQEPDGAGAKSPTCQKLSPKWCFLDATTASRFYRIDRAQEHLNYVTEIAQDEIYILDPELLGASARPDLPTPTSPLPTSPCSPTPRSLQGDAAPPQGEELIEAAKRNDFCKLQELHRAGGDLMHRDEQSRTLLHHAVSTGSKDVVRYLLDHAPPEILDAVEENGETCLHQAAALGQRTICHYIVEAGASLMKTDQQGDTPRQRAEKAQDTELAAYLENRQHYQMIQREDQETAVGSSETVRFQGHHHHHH

Compound	IC50 (human DGKζ) [nM]	IC50 (human DGKα) [nM]	EC50 ([1]; Homo sapiens, 24 h) [nM]	EC50 (whole blood (pERK)) [nM]	EC50 [1] [nM]
CCC(c1nc(C2CC2)no1)N1C[C@H](CC)N(c2nc(=O)n(C)c3ccc(C#N)nc23)C[C@H]1CC (stereo partly drawn) [Example 363, 4-((2S,5R)-4-(1-(3-cyclopropyl-1,2,4-oxadiazol-5-yl)propyl)-2,5-diethylpiperazin-1-yl)-1-methyl-2-oxo-1,2-dihydropyrido[3,2-d]pyrimidine-6-carbonitrile]	32	17	160	24	
CCC(c1ccc(C(F)(F)F)cc1)N1C[C@H](CC)N(c2nc(=O)n(C)c3ccc(OC)nc23)C[C@H]1CC (stereo partly drawn) [Example 435, 4-((2S,5R)-2,5-diethyl-4-(1-(4-(trifluoromethyl)phenyl)propyl)piperazin-1-yl)-6-methoxy-1-methylpyrido[3,2-d]pyrimidin-2(1H)-one]	5510	1900		7290	4160
CCC(c1ccc(OC)cc1)N1C[C@H](C)N(c2nc(=O)n(C)c3ccc(C#N)nc23)C[C@H]1CC (stereo partly drawn) [Example 304, 4-((2S,5R)-5-ethyl-4-(1-(4-methoxyphenyl)propyl)-2-methylpiperazin-1-yl)-1-methyl-2-oxo-1,2-dihydropyrido[3,2-d]pyrimidine-6-carbonitrile]	14	12		110	16
CCC(c1ccc(OC(C)C)cc1)N1C[C@H](C)N(c2nc(=O)n(C)c3ccc(C#N)nc23)C[C@H]1CC (stereo partly drawn) [Example 333, 4-((2 S,5R)-5-ethyl-4-(1-(4-isopropoxyphenyl)propyl)-2-methylpiperazin-1-yl)-1-methyl-2-oxo-1,2-dihydropyrido[3,2-d]pyrimidine-6-carbonitrile]	72	90		100	120
CCC(c1ccc(OCCC(F)(F)F)cc1)N1C[C@H](C)N(c2nc(=O)n(C)c3ccc(C#N)nc23)C[C@H]1CC (single isomer, unassigned) [Example 336]	1100	480		20000	
CCC(N1C[C@H](C)N(c2nc(=O)n(C)c3ccc(C#N)nc23)C[C@H]1C)C12CC(C(F)(F)F)(C1)C2 (single isomer, unassigned) [Example 448]	5140	13400		20000	
CCOC[C@@H]1CN(c2nc(=O)n(C)c3ccc(C#N)nc23)[C@@H](C)CN1C(CC)c1ccc(C(F)(F)F)cc1 (stereo partly drawn) [Example 401, 4-((2S,5S)-5-(ethoxymethyl)-2-methyl-4-(1-(4-(trifluoromethyl)phenyl)propyl)piperazin-1-yl)-1-methyl-2-oxo-1,2-dihydropyrido[3,2-d]pyrimidine-6-carbonitrile]	230	160		4890	
CCC(c1ccc(OCCC2CC2)cc1)N1C[C@H](C)N(c2nc(=O)n(C)c3ccc(C#N)nc23)C[C@H]1CC (stereo partly drawn) [Example 339, 4-((2S,5R)-4-(1-(4-(2-cyclopropylethoxy)phenyl)propyl)-5-ethyl-2-methylpiperazin-1-yl)-1-methyl-2-oxo-1,2-dihydropyrido[3,2-d]pyrimidine-6-carbonitrile]	79	75		280	
CC[C@@H]1CN(c2nc(=O)n(C)c3ccc(C#N)nc23)[C@@H](C)CN1C(C)c1ccc(C(F)(F)F)c(C#N)c1 (single isomer, unassigned) [Example 356]	440	18000		930	
CCC(c1ccc(OCC2CN(C)C2)cc1)N1C[C@H](C)N(c2nc(=O)n(C)c3ccc(C#N)nc23)C[C@H]1CC (stereo partly shown) [Example 343, 4-((2 S, 5R)-5-ethyl-2-methyl-4-(1-(4-((1-methylazetidin-3-yl)methoxy)phenyl)propyl)piperazin-1-yl)-1-methyl-2-oxo-1,2-dihydropyrido[3,2-d]pyrimidine-6-carbonitrile]	6330	740		73	
COC[C@H]1CN(C(C)c2ccc(C(F)(F)F)cc2)[C@H](C)CN1c1nc(=O)n(C)c2ccc(C#N)nc12 (single isomer, unassigned) [Example 409]	1080	72		20000	
CCC(c1ccc(OCCC(F)(F)F)cc1)N1C[C@H](C)N(c2nc(=O)n(C)c3ccc(C#N)nc23)C[C@H]1CC (single isomer, unassigned) [Example 335]	120	25		140	
CCC1CN(c2nc(=O)n(C)c3ccc(C#N)nc23)[C@@H](C)CN1C(C)c1ccc(C(F)(F)F)c(CN2CCOCC2)c1 (single isomer, unassigned) [Example 350]	120	180		3360	
CC[C@@H]1CN(c2nc(=O)n(C)c3ccc(C#N)nc23)[C@@H](C)CN1C(c1ccc(OC)cc1)C(C)C (stereo partly drawn) [Example 314, 4-((2S,5R)-5-ethyl-4-(1-(4-methoxyphenyl)-2-methylpropyl)-2-methylpiperazin-1-yl)-1-methyl-2-oxo-1,2-dihydropyrido[3,2-d]pyrimidine-6-carbonitrile]	4	25		50	
CCC(N1C[C@H](C)N(c2nc(=O)n(C)c3ccc(C#N)nc23)C[C@H]1C)C12CC(C(F)(F)F)(C1)C2 (stereo partly drawn) [Example 447, 4-((2S,5R)-2,5-dimethyl-4-(1-(3-(trifluoromethyl)bicyclo[1.1.1]pentan-1-yl)propyl)piperazin-1-yl)-1-methyl-2-oxo-1,2-dihydropyrido[3,2-d]pyrimidine-6-carbonitrile]	5570	13600		20000	
CCC(c1ccc(OCC2CCOCC2)cc1)N1C[C@H](C)N(c2nc(=O)n(C)c3ccc(C#N)nc23)C[C@H]1CC (stereo partly drawn) [Example 338, 4-((2S,5R)-5-ethyl-2-methyl-4-(1-(4-((tetrahydro-2H-pyran-4-yl)methoxy)phenyl)propyl)piperazin-1-yl)-1-methyl-2-oxo-1,2-dihydropyrido[3,2-d]pyrimidine-6-carbonitrile]	1310	910		20000	
CCC(c1ccc(F)c(F)c1)N1C[C@H](C)N(c2nc(=O)n(C)c3ccc(C#N)nc23)C[C@H]1CC (stereo partly drawn) [Example 319, 4-((2S,5R)-4-(1-(3,4-difluorophenyl)propyl)-5-ethyl-2-methylpiperazin-1-yl)-1-methyl-2-oxo-1,2-dihydropyrido[3,2-d]pyrimidine-6-carbonitrile]	22	52		130	
CC[C@@H]1CN(c2nc(=O)n(C)c3ccc(C#N)nc23)[C@@H](C)CN1C(c1ccc(OC(C)C)cc1)C(C)C (stereo partly drawn) [Example 324, 4-((2S,5R)-5-ethyl-4-(1-(4-isopropoxyphenyl)-2-methylpropyl)-2-methylpiperazin-1-yl)-1-methyl-2-oxo-1,2-dihydropyrido[3,2-d]pyrimidine-6-carbonitrile]	200	850		4210	
CCC(c1c(F)cc(OCC2CC2)cc1F)N1C[C@H](C)N(c2nc(=O)n(C)c3ccc(C#N)nc23)C[C@H]1CC (stereo partly drawn) [Example 327, 4-((2S,5R)-4-(1-(4-(cyclopropylmethoxy)-2,6-difluorophenyl)propyl)-5-ethyl-2-methylpiperazin-1-yl)-1-methyl-2-oxo-1,2-dihydropyrido[3,2-d]pyrimidine-6-carbonitrile]	57	320		2070	

Reference: patent US11584747B2, “Substituted pyridopyrimidinonyl compounds useful as T cell activators” (BRISTOL-MYERS SQUIBB COMPANY, priority 2019, dated 2023)
